Reference: patent publication US11116722B2, “Antifungal dry powders” (priority 2016, dated 2021)

Test system: Calu-3 cell line

Rate of Diffusion (human, pH 7.4): 1.81 cm/s
Compound: CCC(C)n1ncn(-c2ccc(N3CCN(c4ccc(OCC5COC(Cn6cncn6)(c6ccc(Cl)cc6Cl)O5)cc4)CC3)cc2)c1=O (centres unmarked) [Pure ITZ, Itraconazole]
dissolution and permeability kinetics / rate of diffusion (in words): slower dissolution and permeability kinetics than the other formulations
